# Patent US20050228041A1, “Protective and therapeutic uses for tocotrienols” (priority 2003, published 2005)
# Legend:
# [1] = system: HT4 neurons; conditions: nM concentrations; Sen et al., 2000; cited from earlier work
# [2] = system: 12-lipoxygenase activity in HT4 neurons; assay: 12(S)-HETE, product of 12-lipoxygenase activity, in glutamate-treated HT4 neurons (HPLC); type: cell-based, mouse; conditions: HT4, glutamate 12 h
# Procedure: Neurons isolated from 12-LOX deficient mice are resistant to glutamate-induced death (FIG. 4). This striking finding reinforced our interest to test α-tocotrienol as an inhibitor of glutamate-inducible 12-LOX activity in neuronal cells. Referring to FIG. 5, Products of 12-lipoxygenase activity in glutamate-treated neurons were evaluated using a HPLC-based analytical approach. […] ND, not detectable. It was observed that the by-product of 12-LOX activity, 12(S)-HETE, was not detected in HT4 cells under basal culture conditions (FIG. 5). […] However, such increase was prevented in α-tocotrienol treated cells (FIG. 5). This line of observation led to the question whether over-expression of 12-LOX in HT4 cells would sensitize them to glutamate-induced cytotoxicity and whether α-tocotrienol could counter such toxicity.
# 12-HETE detection. 12-Hydroxy-eicosatetraenoic acid (HETE) from HT4 cells was detected using a HPLC-UV based method (Eberhard et al., 2000). Immunofluorescence microscopy. For immunofluorescence microscopy, primary cultures of rat cortical neurons were plated on 35 mm plates pre-coated with poly-L-lysine. After 24 h, cell were treated with α-tocotrienol or BL15 for 5 minutes and then challenged with glutamate or exposed to glutamate. […]
# [3] = system: primary neurons; assay: Cellular glutathione (GSH) in glutamate-treated primary neurons (HPLC-coulometric); type: cell-based, rat; conditions: glutamate 10 mM; α-tocotrienol 100 nM or BL15 2.5 μM
# Procedure: First, we tested for the involvement of 12-LOX in the execution of glutamate-induced death in our model. We started by using the 12-LOX specific inhibitor baicalein or BL15. Referring to FIG. 3, HT4 neurons (A) were either treated or not with a-tocotrienol (250 nM) or […] (2.5 μM, 12-lipoxygenase inhibitor) for 5 min and then challenged with glutamate (10 mM). Cell viability was determined using propidium iodide (PI) exclusion flow cytometry assay. PI−=live; PI+=dead. Rat primary immature cortical neurons (B-D) were either treated or not with α-tocotrienol (100 nM) or BL15 (2.5 μM) for 5 min and challenged either with glutamate (10 mM; B); L-homocysteic acid (1 mM; C) or buthionine sulfoximine (0.15 mM; BSO; D) for 24 h. Arachidonic acid, 50 μM for 24h. BL15, Baicalein 5,6,7-trihydroxy-flavone. […] B-E: †, lower compared to the corresponding control non-treated group; *, higher compared to the corresponding toxin-treated group. P<0.05.
# Glutathione assay. Glutathione (GSH) was detected using a HPLC-coulometric electrode array detector (Coularray Detector—model 5600 with 12 channels; ESA Inc., Chelmsford, Mass.). […] Glutathione was detected at channels set at following potentials: I) 600 mV, II) 700 mV; and II) 800 mV. Signals from channel set at 800 mV were used for quantification (Sen et al., 2002).
smiles,measurement,setting,value
CC(C)=CCC/C(C)=C/CC/C(C)=C/CC[C@]1(C)CCc2c(C)c(O)c(C)c(C)c2O1 [α-tocotrienol],protection of HT4 neurons from glutamate-induced death (previously reported),[1],protects
same,glutamate-induced increase of cellular 12(S)-HETE content,[2],prevented
same,cellular glutathione (GSH) in protected glutamate-treated primary neurons,[3],loss of cellular glutathione
